From article PMC5872235 (2018)
Values after ≈ are worked out from the molar mass of the structure shown. Values joined by “and” are separate entries in the source; they are usually repeats but may differ in a detail not shown here. Equal entries are not always repeated. Where two headings read alike, the source gives them in different places. Peptide text beside a SMILES is read from it.

Legend:
[1] = test system: S. aureus in patients with atopic dermatitis; format: cell-based, Staphylococcus aureus
[2] = test system: S. aureus in control group; format: cell-based, Staphylococcus aureus
[3] = test system: Staphylococcus aureus strains isolated from atopic dermatitis (AD) patients
[4] = test system: Staphylococcus aureus strains isolated from control group
[5] = test system: Superantigen positive Staphylococcus aureus (n = 52)
[6] = test system: Superantigen negative Staphylococcus aureus (n = 48)
[7] = test system: vancomycin intermediate S. aureus (VISA) isolates; conditions: cited from earlier work
[8] = test system: Staphylococcus aureus strains isolated from atopic dermatitis (AD) patients; assay: microbe, parasite or virus in culture; conditions: 18 h
[9] = test system: Staphylococcus aureus strains isolated from control group; assay: microbe, parasite or virus in culture; conditions: 18 h
[10] = test system: Superantigen positive Staphylococcus aureus (n = 52); assay: microbe, parasite or virus in culture; conditions: 18 h
[11] = test system: Superantigen negative Staphylococcus aureus (n = 48); assay: microbe, parasite or virus in culture; conditions: 18 h
[12] = test system: S. aureus isolates; conditions: cited from earlier work
[13] = strains isolated from atopic dermatitis (AD) patients, 18 h
[14] = strains isolated from control group, 18 h
[15] = Superantigen positive (n = 52, 18 h)
[16] = Superantigen negative (n = 48, 18 h)

Structure (SMILES)	Resistance (%), resistant strains [1] [%]	MIC50 [5, 15] [µg/mL]	MIC90 [5, 15] [µg/mL]	MIC Range [5, 15] [µg/mL]	MIC50 [6, 16] [µg/mL]	MIC90 [6, 16] [µg/mL]	MIC Range [6, 16] [µg/mL]	MIC Range [3] [µg/mL]	MIC Range [4] [µg/mL]	MIC Range [5] [µg/mL]	MIC Range [6] [µg/mL]	MIC50 [8] [µg/mL]	MIC90 [8] [µg/mL]	MIC50 [9] [µg/mL]	MIC90 [9] [µg/mL]	MIC50 [10] [µg/mL]	MIC90 [10] [µg/mL]	MIC50 [11] [µg/mL]	MIC90 [11] [µg/mL]	other results
CCCCCCCCCC(=O)N[C@@H](Cc1c[nH]c2ccccc12)C(=O)N[C@H](CC(N)=O)C(=O)N[C@@H](CC(=O)O)C(=O)N[C@@H]1C(=O)NCC(=O)N[C@@H](CCCN)C(=O)N[C@@H](CC(=O)O)C(=O)N[C@H](C)C(=O)N[C@@H](CC(=O)O)C(=O)NCC(=O)N[C@H](CO)C(=O)N[C@@H]([C@H](C)CC(=O)O)C(=O)N[C@@H](CC(=O)c2ccccc2N)C(=O)O[C@@H]1C [Daptomycin, daptomycin]	54.7	2 (≈ 1.23 µM)	2 (≈ 1.23 µM)	0.125 to 4	2 (≈ 1.23 µM)	4 (≈ 2.47 µM)	0.0625 to 4													Resistance (%), resistant strains [2]: 4%; MIC50 [3, 13]: 2 µg/mL (≈ 1.23 µM); MIC90 [3, 13]: 4 µg/mL (≈ 2.47 µM); MIC Range [3, 13]: 0.125 to 4 µg/mL; MIC50 [4, 14]: 2 µg/mL (≈ 1.23 µM); MIC90 [4, 14]: 2 µg/mL (≈ 1.23 µM); MIC Range [4, 14]: 1 to 2 µg/mL; MIC [7]: 4 µg/mL (≈ 2.47 µM); minimum inhibitory concentration (MIC) [7]: 2 µg/mL (≈ 1.23 µM)
CC(=O)NC[C@H]1CN(c2ccc(N3CCOCC3)c(F)c2)C(=O)O1 [Linezolid, linezolid]								0.25 to 32	1 to 4	0.5 to 4	0.25 to 4	1 (≈ 2.96 µM)	4 (≈ 11.9 µM)	2 (≈ 5.93 µM)	4 (≈ 11.9 µM)	1 (≈ 2.96 µM)	2 (≈ 5.93 µM)	1 (≈ 2.96 µM)	4 (≈ 11.9 µM)	Resistance of isolates, in words [1]: none of the isolates were resistant; Susceptibility of all strains, in words [2]: sensitive
CC1(C)S[C@@H]2[C@H](NC(=O)[C@H](N)c3ccccc3)C(=O)N2[C@H]1C(=O)O [Ampicillin, ampicillin]	58.5								0.25 to 32			2 (≈ 5.72 µM)	16 (≈ 45.8 µM)	16 (≈ 45.8 µM)	32 (≈ 91.6 µM)	1 (≈ 2.86 µM)	8 (≈ 22.9 µM)	8 (≈ 22.9 µM)	16 (≈ 45.8 µM)	Resistance (%), resistant strains [2]: 4%
CC[C@H](C)[C@H](NC(=O)[C@@H](NC(=O)[C@H](CO)NC(=O)[C@H](C)NC(=O)[C@@H](NC(=O)[C@H](CCCCN)NC(=O)[C@H](CCCCN)NC(=O)[C@@H](NC(=O)[C@@H](NC(=O)[C@H](CC(=O)O)NC(=O)[C@H](Cc1ccccc1)NC(=O)[C@H](CC(C)C)NC(=O)CN)C(C)C)[C@@H](C)CC)C(C)C)C(C)C)C(=O)NCC(=O)NCC(=O)N[C@@H](CC(C)C)C(N)=O [Citropin 1.1] (H-GLFDVIKKVASVIGGL-NH2)		16 (≈ 9.91 µM)	16 (≈ 9.91 µM)	1 to 64	16 (≈ 9.91 µM)	32 (≈ 19.8 µM)	1 to 128													
CCC[C@@H]1C[C@@H](C(=O)N[C@@H]([C@H]2O[C@H](SC)[C@H](O)[C@@H](O)[C@H]2O)[C@@H](C)O)N(C)C1 [Lincomycin, lincomycin]	37.5											1 (≈ 2.46 µM)	64 (≈ 157 µM)	0.5 (≈ 1.23 µM)	> 512	1 (≈ 2.46 µM)	16 (≈ 39.4 µM)	1 (≈ 2.46 µM)	64 (≈ 157 µM)	
CC(=O)O[C@H]1C[C@@]2(C)[C@@H](C[C@@H](O)[C@H]3[C@@]4(C)CC[C@@H](O)[C@@H](C)[C@@H]4CC[C@@]32C)/C1=C(\CCC=C(C)C)C(=O)O [Fusidic acid, fusidic acid]	15.5							0.312 to 32	0.125 to 16	0.0625 to 32	0.0312 to 32	0.125 (≈ 0.242 µM)	8 (≈ 15.5 µM)	1 (≈ 1.94 µM)	16 (≈ 31 µM)	0.125 (≈ 0.242 µM)	8 (≈ 15.5 µM)	0.125 (≈ 0.242 µM)	4 (≈ 7.74 µM)	S. aureus isolates resistant [12]: 50%
CN[C@H](CC(C)C)C(=O)N[C@H]1C(=O)N[C@@H](CC(N)=O)C(=O)N[C@H]2C(=O)N[C@H]3C(=O)N[C@H](C(=O)N[C@H](C(=O)O)c4cc(O)cc(O)c4-c4cc3ccc4O)[C@H](O)c3ccc(c(Cl)c3)Oc3cc2cc(c3O[C@@H]2O[C@H](CO)[C@@H](O)[C@H](O)[C@H]2O[C@H]2C[C@](C)(N)[C@H](O)[C@H](C)O2)Oc2ccc(cc2Cl)[C@H]1O [Vancomycin, vancomycin]								0.125 to 8	0.25 to 1	0.125 to 2	0.125 to 2	0.5 (≈ 0.345 µM)	2 (≈ 1.38 µM)	1 (≈ 0.69 µM)	1 (≈ 0.69 µM)	0.5 (≈ 0.345 µM)	1 (≈ 0.69 µM)	1 (≈ 0.69 µM)	2 (≈ 1.38 µM)	Resistance of isolates, in words [1]: none of the isolates were resistant; Susceptibility of all strains, in words [2]: sensitive
CC[C@H](C)[C@H](NC(=O)[C@H](CCCCN)NC(=O)[C@H](CCC(=O)O)NC(=O)[C@H](CCCCN)NC(=O)[C@H](CO)NC(=O)[C@H](CCCCN)NC(=O)[C@H](CCCNC(=N)N)NC(=O)[C@H](Cc1ccccc1)NC(=O)[C@H](Cc1ccccc1)NC(=O)[C@H](CC(=O)O)NC(=O)CNC(=O)[C@H](CC(C)C)NC(=O)[C@@H](N)CC(C)C)C(=O)NCC(=O)N[C@@H](CCCCN)C(=O)N[C@@H](CCC(=O)O)C(=O)N[C@@H](Cc1ccccc1)C(=O)N[C@@H](CCCCN)C(=O)N[C@@H](CCCNC(=N)N)C(=O)N[C@H](C(=O)N[C@H](C(=O)N[C@@H](CCC(N)=O)C(=O)N[C@@H](CCCNC(=N)N)C(=O)N[C@H](C(=O)N[C@@H](CCCCN)C(=O)N[C@@H](CC(=O)O)C(=O)N[C@@H](Cc1ccccc1)C(=O)N[C@@H](CC(C)C)C(=O)N[C@@H](CCCNC(=N)N)C(=O)N[C@@H](CC(N)=O)C(=O)N[C@@H](CC(C)C)C(=O)N[C@H](C(=O)N1CCC[C@H]1C(=O)N[C@@H](CCCNC(=N)N)C(=O)N[C@H](C(=O)N[C@@H](CCC(=O)O)C(=O)N[C@@H](CO)C(=O)O)[C@@H](C)O)C(C)C)[C@@H](C)CC)C(C)C)[C@@H](C)CC [LL-37]		64 (≈ 14.2 µM)	256 (≈ 57 µM)		128 (≈ 28.5 µM)	> 512														
CC[C@H](C)[C@H](NC(=O)[C@H](CCCCN)NC(=O)[C@H](CCCCN)NC(=O)[C@H](Cc1ccccc1)NC(=O)[C@H](CC(C)C)NC(=O)[C@H](CCCCN)NC(=O)[C@H](Cc1c[nH]c2ccccc12)NC(=O)[C@@H](N)CCCCN)C(=O)NCC(=O)N[C@@H](C)C(=O)N[C@H](C(=O)N[C@@H](CC(C)C)C(=O)N[C@@H](CCCCN)C(=O)N[C@H](C(=O)N[C@@H](CC(C)C)C(N)=O)C(C)C)C(C)C [CAMEL] (H-KWKLFKKIGAVLKVL-NH2)		4 (≈ 2.26 µM)	8 (≈ 4.52 µM)	1 to 8	4 (≈ 2.26 µM)	4 (≈ 2.26 µM)	2 to 128													
CC[C@H]1OC(=O)[C@H](C)[C@@H](O[C@H]2C[C@@](C)(OC)[C@@H](O)[C@H](C)O2)[C@H](C)[C@@H](O[C@@H]2O[C@H](C)C[C@H](N(C)C)[C@H]2O)[C@](C)(O)C[C@@H](C)C(=O)[C@H](C)[C@@H](O)[C@]1(C)O [Erythromycin, erythromycin]												0.5 (≈ 0.681 µM)	> 512	1 (≈ 1.36 µM)	> 512	0.5 (≈ 0.681 µM)	> 512	0.5 (≈ 0.681 µM)	256 (≈ 349 µM)	rate of resistance [12]: 14% and 18%
C/C(=C\C(=O)OCCCCCCCCC(=O)O)C[C@@H]1OC[C@H](C[C@@H]2O[C@H]2[C@@H](C)[C@H](C)O)[C@@H](O)[C@H]1O [Mupirocin, mupirocin]	17.5								0.125 to 32			0.5 (≈ 0.999 µM)	> 512	0.25 (≈ 0.499 µM)	32 (≈ 63.9 µM)	0.5 (≈ 0.999 µM)	> 512	0.25 (≈ 0.499 µM)	512 (≈ 1020 µM)	Susceptibility of all strains, in words [2]: sensitive
CC[C@H](C)[C@H](NC(=O)CNC(=O)[C@H](CO)NC(=O)[C@H](CC(C)C)NC(=O)[C@@H](NC(=O)[C@H](CCCNC(=N)N)NC(=O)CNC(=O)[C@@H](NC(=O)[C@H](CC(C)C)NC(=O)[C@@H]1CCCN1C(=O)[C@H](CC(C)C)NC(=O)[C@@H](N)Cc1ccccc1)[C@@H](C)CC)C(C)C)C(=O)N[C@@H](CC(C)C)C(N)=O [Temporin A] (H-FLPLIGRVLSGIL-NH2)		8 (≈ 5.73 µM)	16 (≈ 11.5 µM)	2 to 64	8 (≈ 5.73 µM)	32 (≈ 22.9 µM)	4 to 32													
CN(C)[C@@H]1C(O)=C(C(N)=O)C(=O)[C@@]2(O)C(O)=C3C(=O)c4c(O)cccc4[C@@](C)(O)[C@H]3C[C@@H]12 [Tetracycline, tetracycline]	15.5							0.125 to 64	0.125 to 32	0.0625 to 32	0.0625 to 32	0.5 (≈ 1.13 µM)	32 (≈ 72 µM)	0.5 (≈ 1.13 µM)	32 (≈ 72 µM)	0.25 (≈ 0.563 µM)	32 (≈ 72 µM)	0.5 (≈ 1.13 µM)	32 (≈ 72 µM)	
